Experimental data taken from patent publication US9918972B2, “Treatment of leukemia with artemisinin derivatives and combinations with other antineoplastic agents” (UNIVERSITY OF MARYLAND, BALTIMORE, priority 2014, dated 2018).

Tests used:
MOLM14 and KOPN8 cells = assay: Validation of ABT-199/ABT-737 + AS/ART-838 combinations, alamarBlue, Chou-Talalay; format: cell-based, human; settings: MOLM14 and KOPN8, AS or ART-838 at IC50, 48 h
Procedure: FIGS. 10A-10B. Validation of cytotoxicity of ABT-199/ABT-737+AS/ART-838 combinations by alamarBlue assay. […] Each experiment was performed in triplicate. All data points between 0.1-99.9% growth inhibition were analyzed using the methods of Chou and Talalay and combination indices (CIs) calculated. CIs were graphed against the fractional effect (FE; the fraction of cells inhibited at each concentration). CI<1 indicates synergy, CI=1, additivity, CI>1, antagonism.
(§1) MOLM14 or KOPN8 cells were seeded in 96-well plates as described above for alamarBlue assays. Cells were treated with a certain concentrations of AS, or ART-838 or DHA, in combination with a range of concentrations of ABT-199 or ABT-263 or ABT-737. AlamarBlue assays were performed as described above. Each set of drugs or drug combinations was tested in triplicate. Chou-Talalay drug combination analysis was performed as above.
Cytotoxicity of the individual drugs and combinations was assessed using alamarBlue fluorescence, a more sensitive indicator of cell metabolism (as a surrogate for cell number) than MTS.
Drug combination interactions were assessed using the methods of Chou-Talalay, a more robust measure of synergy than the Bliss independence model. The Chou-Talalay method, however, can only be used at drug effect levels from 0.1-99.9%. […]

MOLM14 = assay: Kinase inhibitor drug combination screen (MTS, Bliss-independence analysis)
Text: (§2) Hits were ranked by the observed inhibition over the Bliss independence prediction.
(§3) Combinations with positive values for this Bliss difference were considered synergistic, values near zero, additive, and negative values, antagonistic.

Kasumi-1 = assay: as above; settings: Kasumi-1, Drug 2 = ART-838 at approximate IC50, 48 h
Text: as §2, §3

KOPN8 = assay: as above
Text: as §2, §3

RCH-ACV = assay: as above
Text: as §2, §3

[1] = tested on: MOLM14, Kasumi-1, KOPN8 and RCH-ACV leukemia cell lines; assay: Kinase inhibitor drug combination screen, summary over the four leukemia cell lines; settings: for No. Cell Lines: cell lines synergistically inhibited (>10% over Bliss) by drug 1 combined with AS and/or ART-838; for average inhibition over the Bliss prediction: plus ART-838, average over synergistic cell lines; for average inhibition over the Bliss independence prediction: average over synergistic cell lines; for synergy with AS or ART-838: screens in four human leukemia cell lines
Text: as §2, §3

MOLM14 cells [2] = assay: ROS - mitochondrial superoxide (MitoSOX flow cytometry); format: cell-based, human; settings: MOLM14, drug alone, 2.25x IC50, 16 h
Procedure: FIGS. 4A-4D. […] CIs were computed as described above. CI<1 indicates synergy, CI=1, additivity, CI>1, antagonism. […] Cells were then loaded with 5 μM MitoSox for 30 min, washed, and analyzed by flow cytometry for MitoSox fluorescence (indicating mitochondrial superoxide) in the FL2 channel. […] Error bars represent the SEM of three independent experiments.

[3] = tested on: chemotherapy (doxorubicin, hydroxyurea, methotrexate, or vincristine)-resistant CEM (T-ALL) sub-lines; settings: reference [27]; cited from earlier work
MOLM14 cells [4] = assay: Combinations of AS, ART-838 or DHA with BCL-2 inhibitors, alamarBlue, 48 h; format: cell-based, human
Procedure: FIGS. 11A-11C. Antileukemic efficacy of ABT-199, ABT-263 or ABT-737 combined with AS or ART-838. […] Each experiment was performed in triplicate.
FIG. 12. […] MOLM14 cells were treated with increasing concentrations of ABT-199, ABT-263 or ABT-737 without or with DHA (500 nM and 1 μM) for 48hrs. Then cytotoxicity was evaluated by alamarBlue assays. Each experiment was performed in triplicate.
as §1

MOLM14 cells [5] = assay: Apoptosis (APC Annexin-V / 7-AAD, FACS); format: cell-based, human; settings: MOLM14, ABT-199 plus AS or ART-838, 24 hrs
Procedure: FIG. 13. […] MOLM14 cells were treated with ABT-199 and/or AS (upper panel) or ART-838 (lower panel) for 24 hrs. Cells were stained with APC Annexin-V and 7-AAD and analyzed by fluorescence-activated cell sorting (FACS) to assess apoptotic cells. The early apoptotic population was defined as APC Annexin-V (+) and 7-AAD (−). The total apoptotic population was defined as APC Annexin-V (+). Each experiment was performed in triplicate. […].
Drug or vehicle-treated cells (1-5×10^5/sample) were washed with cold PBS, resuspended in Annexin-V binding buffer, co-stained with 5 μl each of APC Annexin-V and 7-AAD viability dye (all from BioLegend, San Diego, Calif.), and incubated for 15 minutes at room temperature in the dark then stored on ice until analysis (<30 minutes). Stained cells were analyzed using the FL3 and FL4 channels of an Accuri C6 flow cytometer. ˜10,000 non-debris cellular events were collected per sample and analyzed, as for cell cycle. The Annexin-V^−/7-AAD^− population was designated “viable,” the Annexin-V^+/7-AAD^− population was designated “early apoptotic,” and the Annexin-V^+/7-AAD^+ population was designated “dying/dead” [47].

[6] = MOLM14, Drug 2 = ART-838 at approximate IC50, 48 h
[7] = MOLM14, Drug 2 = AS at approximate IC50, 48 h
[8] = KOPN8, Drug 2 = ART-838 at approximate IC50, 48 h
[9] = KOPN8, Drug 2 = AS at approximate IC50, 48 h
[10] = Drug 2 = ART-838 at approximate IC50, 48 h
[11] = Drug 2 = AS at approximate IC50, 48 h

CN(C)CC[C@H](CSc1ccccc1)Nc1ccc(S(=O)(=O)NC(=O)c2ccc(N3CCN(Cc4ccccc4-c4ccc(Cl)cc4)CC3)cc2)cc1[N+](=O)[O-] [ABT-737]
cytotoxic efficacy on addition of AS or ART-838 (MOLM14 and KOPN8 cells): potently increased the efficacy
fractional inhibition over Bliss prediction (MOLM14; [6]): MOLM14 (0.34),
fractional inhibition over Bliss prediction (MOLM14; [7]): MOLM14 (0.50),
fractional inhibition over Bliss prediction (Kasumi-1): Kasumi-1 (0.11),
fractional inhibition over Bliss prediction (KOPN8; [8]): KOPN8 (0.28),
fractional inhibition over Bliss prediction (KOPN8; [9]): KOPN8 (0.25),
fractional inhibition over Bliss prediction (RCH-ACV; [10]): RCH-ACV (0.24)
fractional inhibition over Bliss prediction (RCH-ACV; [11]): RCH-ACV (0.23)
No. Cell Lines [1]: 4/4
cell lines in which combination was synergistic ([1]; plus ART-838): 4/4
average inhibition over the Bliss prediction [1]: 24%
cell lines in which combination was synergistic ([1]; plus AS): 3/4
average inhibition over the Bliss independence prediction ([1]; plus AS): 33%
synergy with AS or ART-838 [1]: Particularly strong synergy

C[C@H]1[C@H](OC(=O)CCC(=O)O)O[C@@H]2O[C@@]3(C)CC[C@H]4[C@H](C)CC[C@@H]1[C@@]24OO3 [AS, artesunate]
mitochondrial superoxide (MitoSox MFI) (MOLM14 cells [2]): increased
efficacy against resistant sub-lines vs parental line [3]: as effective

CC1(C)CCC(CN2CCN(c3ccc(C(=O)NS(=O)(=O)c4ccc(NCC5CCOCC5)c([N+](=O)[O-])c4)c(Oc4cnc5[nH]ccc5c4)c3)CC2)=C(c2ccc(Cl)cc2)C1 [ABT-199]
leukemia cell growth inhibition (MOLM14 cells [4]; MOLM14, 37 nM ABT-199 alone): did not inhibit
growth inhibition (MOLM14 cells [4]; MOLM14, 37 nM ABT-199 together with ART-838 25 nM): 100%
growth inhibition (MOLM14 cells [4]; MOLM14, 37 nM ABT-199 together with AS 825 nM): 100%
cytotoxic efficacy on addition of AS or ART-838 (MOLM14 and KOPN8 cells): potently increased the efficacy
induction of apoptosis (MOLM14 cells [5]): cooperated to induce apoptosis
fractional inhibition over Bliss prediction (MOLM14; [6]): MOLM14 (0.18),
fractional inhibition over Bliss prediction (MOLM14; [7]): MOLM14 (0.20),
fractional inhibition over Bliss prediction (KOPN8; [8]): KOPN8 (0.11),
fractional inhibition over Bliss prediction (KOPN8; [9]): KOPN8 (0.15),
fractional inhibition over Bliss prediction (RCH-ACV; [10]): RCH-ACV (0.35)
fractional inhibition over Bliss prediction (RCH-ACV; [11]): RCH-ACV (0.16)
No. Cell Lines [1]: 3/4
cell lines in which combination was synergistic ([1]; plus ART-838): 3/4
average inhibition over the Bliss prediction [1]: 21%
cell lines in which combination was synergistic ([1]; plus AS): 3/4
average inhibition over the Bliss independence prediction ([1]; plus AS): 17%
synergy with AS or ART-838 [1]: Particularly strong synergy
